Like-named read-outs stand apart in the source and are kept apart here.
Assays:
Type in all cases: cell-based
BRD9 [1] = target: T1, BRD9 (Homo sapiens, UniProt Q9H8M2); assay: BRD9 degradation, HiBiT-BRD9 KI HEK293 (LgBiT) cells, NanoGlo Lytic Endpoint assay (Assay Protocol 1); settings: for Dmax at 1 µM / Dmax: HEK293
T1 sequence (Q9H8M2 1-597): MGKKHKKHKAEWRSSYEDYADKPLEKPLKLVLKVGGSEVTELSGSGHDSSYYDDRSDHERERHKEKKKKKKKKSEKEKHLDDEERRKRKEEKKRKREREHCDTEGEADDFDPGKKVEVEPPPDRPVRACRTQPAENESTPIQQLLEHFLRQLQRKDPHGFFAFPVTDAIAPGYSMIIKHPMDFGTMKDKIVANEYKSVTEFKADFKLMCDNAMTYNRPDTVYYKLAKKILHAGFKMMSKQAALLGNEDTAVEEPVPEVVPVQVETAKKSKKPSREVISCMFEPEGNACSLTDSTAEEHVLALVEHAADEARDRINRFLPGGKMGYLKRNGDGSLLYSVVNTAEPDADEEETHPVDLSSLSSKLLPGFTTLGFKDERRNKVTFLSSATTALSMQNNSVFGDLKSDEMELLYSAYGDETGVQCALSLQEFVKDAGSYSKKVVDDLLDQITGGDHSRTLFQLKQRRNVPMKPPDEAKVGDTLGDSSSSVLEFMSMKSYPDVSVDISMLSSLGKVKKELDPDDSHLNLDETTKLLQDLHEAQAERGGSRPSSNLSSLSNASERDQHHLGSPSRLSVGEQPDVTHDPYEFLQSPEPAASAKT
In short: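 HiBiT-tagged BRD9 knock-in HEK293 (LgBiT) cells exposed to compounds for 6 h at 37 °C, 5% CO2. Residual BRD9 measured by HiBiT lytic luminescence. % BRD9 remaining normalised to DMSO-treated cells (high) and no-cell wells (low).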

BRD7 = target: T2, BRD7 (Homo sapiens, UniProt Q9NPI1); assay: BRD7 degradation, HiBiT-BRD7 KI HEK293 (LgBiT) cells, NanoGlo Lytic Endpoint assay (Assay Protocol 1); settings: HEK293; Table 3; assay 1; 1 μM compound at 5 h of treatment
T2 construct: HiBiT-BRD7 KI HEK293 (LgBiT) Cells (Promega CS3023410); host or cells: HEK293 (LgBiT), HiBiT knock-in at the BRD7 locus
T2 sequence (Q9NPI1 1-651): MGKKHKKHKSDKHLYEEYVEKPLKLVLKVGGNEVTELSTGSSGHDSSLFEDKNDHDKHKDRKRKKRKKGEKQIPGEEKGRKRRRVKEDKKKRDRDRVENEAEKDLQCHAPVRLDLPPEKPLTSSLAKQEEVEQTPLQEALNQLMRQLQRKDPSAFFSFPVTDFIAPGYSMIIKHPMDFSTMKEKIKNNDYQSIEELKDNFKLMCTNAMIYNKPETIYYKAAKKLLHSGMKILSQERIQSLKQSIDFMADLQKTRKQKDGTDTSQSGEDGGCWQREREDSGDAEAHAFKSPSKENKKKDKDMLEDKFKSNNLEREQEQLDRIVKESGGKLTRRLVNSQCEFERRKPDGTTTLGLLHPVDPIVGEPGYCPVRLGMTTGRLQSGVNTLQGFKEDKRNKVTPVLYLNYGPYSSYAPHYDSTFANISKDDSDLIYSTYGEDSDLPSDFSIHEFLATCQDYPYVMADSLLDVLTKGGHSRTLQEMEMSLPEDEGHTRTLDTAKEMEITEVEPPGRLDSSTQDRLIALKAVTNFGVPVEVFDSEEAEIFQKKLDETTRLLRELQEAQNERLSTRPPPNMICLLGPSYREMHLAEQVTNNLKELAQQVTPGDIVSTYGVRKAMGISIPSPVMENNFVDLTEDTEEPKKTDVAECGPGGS
Protocol: HiBiT-BRD9 KI HEK293 (LgBiT) Cells (Promega CS3023412) were seeded at 8000 cells per well (38 μL) in sterile white bottom 384 well plates (Invitrogen 164610 or Greiner 781080) and incubated overnight at 37° C. with 5% CO2. The next day, compounds were prepared at 1000× final concentration in DMSO and diluted 1:100 in media (DMEM PAN Biotech P04-03550+10% FBS ATCC 302025). […] The lytic buffer was equilibrated to room temperature for 10-15 min before lytic reagent was prepared by adding substrate (1:50) and LgBit protein (1:100) in lytic buffer. 40 μL lytic reagent mix was added to each well of the cel plate and plates were centrifuged briefly at ˜50g. Plates were incubated with shaking (350 RPM) for 12-24 min before reading using the LUM plus module of a BMG Pherastar FSX. Data was analysed using Dotmatics software and % BRD9 remaining was calculated by normalisation to average data from high and low control wells (DMSO treated cels and no cells respectively).
BRD7 degradation was determined in line with the procedure as outlined above for BRD9, with the exception that HiBiT-BRD7 KI HEK293 (LgBiT) Cells (Promega CS3023410) were seeded at 8000 cells per well (CPW) (36 uL) in sterile white bottom 384 well plates (Invitrogen 164610 or Greiner 781080) and incubated overnight at 37° C. with 5% CO2.

BRD9 [2] = target: T1, BRD9; assay: BRD9 degradation, HiBiT-BRD9 KI HEK293 (LgBiT) cells, NanoGlo Lytic Endpoint assay (Assay Protocol 1); settings: Table 3; assay 1; 5 h of treatment
BRD4 = target: T3, BRD4 (Homo sapiens, UniProt O60885); assay: BRD4 degradation, HiBiT-BRD4 HEK293 CRISPR CPM cells, NanoGlo Lytic Endpoint assay (Assay Protocol 1); settings: Table 3, assay 1; for Dmax: HEK293, 1 μM compound at 5 h of treatment; for DC50: 5 h of treatment
T3 construct: HiBiT-BRD4 HEK293 CRISPR CPM (Promega CS302312); host or cells: HEK293, CRISPR-edited (HiBiT at the BRD4 locus)

BRD9 [3] = target: T1, BRD9; assay: Degradation of BRD9 (IF), immunofluorescence in MV4-11 cells, 24 hours (Assay Protocol 2); design: A suspension of MV4-11 cells (ATCC CRL-9591) was prepared; host or cells: MV4-11; settings: BRD9 degradation
In short: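 MV4-11 cells treated with compound 24 h at 37° C., then fixed, permeabilised and immunostained for BRD9 (anti-BRD9 E4Q3F, Alexa 647 secondary, Hoechst counterstain). High-content imaging quantified nuclear BRD9 signal; % BRD9 remaining normalised to DMSO and 100 nM CFT-8634 controls.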

[4] = Table 2, BRD9 degradation, Assay Protocol 1, 1 μM compound at 6 h of treatment, read-out: Assay 1 Dmax
[5] = Table 3, assay 1, 1 μM compound at 5 h of treatment, read-out: BRD9 Dmax (%)
[6] = Table 2, BRD9 degradation, Assay Protocol 1, 6 h of treatment, read-out: Assay 1 DC50
[7] = Assay protocol 1, BRD9 degradation, read-out: Dmax
[8] = MV4-11, Assay protocol 2, read-out: Dmax
[9] = Table 4, BRD9 degradation, determined according to Assay Protocol 1, read-out: Dmax^1
[10] = MV4-11, Table 4, determined according to Assay Protocol 2, read-out: Dmax^2
[11] = Table 4, determined according to Assay Protocol 2, read-out: DC50^2
[12] = Table 4, BRD9 degradation, determined according to Assay Protocol 1, read-out: DC50^1

| Dmax (BRD9 [1]; [9]) [%] | Dmax (BRD9 [3]; [10]) [%] | DC50 (BRD9 [3]; [11]) [nM] | DC50 (BRD9 [1]; [12]) [nM] | SMILES | also measured |
| --- | --- | --- | --- | --- | --- |
| 30 to 50 | 50 to 70 | 25 to 200 | – | COc1cc(-c2cn(C)c(=O)c(C)c2C)cc(OC)c1CN1CCN(C(=O)C2CCCN(C(=O)/C(C#N)=C/c3nccs3)C2)CC1 (stereo not drawn) [Compound B205] | – |
| > 70 | 50 to 70 | 25 to 200 | 25 to 200 | COc1cc(-c2cn(C)c(=O)c(C)c2C)cc(OC)c1CN1CCN(C(=O)C2CCCN(C(=O)/C(C#N)=C/C(C)(C)C)C2)CC1 (stereo not drawn) [Compound B206] | – |
| > 70 | 50 to 70 | > 200 | > 200 | COc1cc(-c2cn(C)c(=O)c(C)c2C)cc(OC)c1CN1CCN(C(=O)[C@@H]2CN(C(=O)/C(C#N)=C/c3ccc(F)cc3)C[C@H]2C2CCCCC2)CC1 [Compound B211] | – |
| 50 to 70 | 50 to 70 | 25 to 200 | 25 to 200 | COc1cc(-c2cn(C)c(=O)c(C)c2C)cc(OC)c1CN1CCN(C(=O)[C@@H]2CN(C(=O)/C(C#N)=C/C(C)(C)C)C[C@H]2C(C)C)CC1 [Compound B212] | – |

The next lines start with the molecule.

| SMILES | Dmax (BRD9 [1]; [9]) [%] | Dmax (BRD9 [3]; [10]) [%] | DC50 (BRD9 [3]; [11]) [nM] | DC50 (BRD9 [1]; [12]) [nM] | also measured |
| --- | --- | --- | --- | --- | --- |
| COc1cc(-c2cn(C)c(=O)c(C)c2C)cc(OC)c1CN1CCN(Cc2cccc3c2CCN(C(=O)/C(C#N)=C/c2ncc(C)s2)C3C)CC1 (mixture of isomers) [Compound A29] | – | – | – | – | Dmax at 1 µM (BRD9 [1]; [4]): 40 to 70%; Dmax at 1 µM (BRD9 [1]; [5]): 40 to 70%; DC50 (BRD9 [1]; [6]): 1.25 to 10 nM; Dmax at 1 µM (BRD7): 25 to 40%; DC50 (BRD9 [2]): 1.25 to 10 nM; Dmax (BRD4): < 25% |
| COc1cc(-c2cc(C)c(=O)n(C)c2)cc(OC)c1CN1CCN(Cc2cccc3c2CCN(C(=O)/C(C#N)=C/c2cccc(Br)n2)C3C)CC1 (mixture of isomers) [Compound A60] | – | – | – | – | Dmax at 1 µM (BRD9 [1]; [4]): 40 to 70%; Dmax at 1 µM (BRD9 [1]; [5]): 40 to 70%; DC50 (BRD9 [1]; [6]): < 1.25 nM; Dmax at 1 µM (BRD7): < 25%; DC50 (BRD9 [2]): < 1.25 nM; Dmax (BRD4): 40 to 70%; DC50 (BRD4): 25 to 1000 nM |
| COc1cc(-c2cc(C)c(=O)n(C)c2)cc(OC)c1CN1CCN(Cc2cccc3c2CCN(C(=O)/C(C#N)=C/C2(F)CC2)C3C)CC1 (mixture of isomers) [Compound A61, (E/Z)-2-(5-((4-(4-(1,5-dimethyl-6-oxo-1,6-dihydropyridin-3-yl)-2,6-dimethoxybenzyl)piperazin-1-yl)methyl)-1-methyl-1,2,3,4-tetrahydroisoquinoline-2-carbonyl)-3-(1-fluorocyclopropyl) acrylonitrile] | – | – | – | – | Dmax at 1 µM (BRD9 [1]; [4]): > 75%; Dmax at 1 µM (BRD9 [1]; [5]): > 75%; DC50 (BRD9 [1]; [6]): < 1.25 nM; Dmax at 1 µM (BRD7): < 25%; DC50 (BRD9 [2]): < 1.25 nM; Dmax (BRD4): 40 to 70%; DC50 (BRD4): 25 to 1000 nM |
| CCCC(c1ccc(C(=O)N(C)CCC(=O)N2CCN(Cc3c(OC)cc(-c4cn(C)c(=O)c(C)c4C)cc3OC)CC2)cc1)N(C)C(=O)/C(C#N)=C/c1nccs1 (stereo not drawn) [Compound B180] | – | – | – | – | Dmax (BRD9 [1]; [7]): 40 to 70%; Dmax (BRD9 [3]; [8]): 40 to 70% |
| COc1cc(-c2cn(C)c(=O)c(C)c2C)cc(OC)c1CN1CCN(C(=O)C2CC(C(C)C)CN(C(=O)/C(C#N)=C/C(C)(C)C)C2)CC1 (stereo not drawn) [Compound B207] | > 70 | > 70 | 25 to 200 | 25 to 200 | – |
| COc1ccc(C2CC(C(=O)N3CCN(Cc4c(OC)cc(-c5cn(C)c(=O)c(C)c5C)cc4OC)CC3)CN(C(=O)/C(C#N)=C/C(C)(C)C)C2)cc1 (stereo not drawn) [Compound B208] | > 70 | > 70 | < 25 | < 25 | – |
| COc1cc(-c2cn(C)c(=O)c(C)c2C)cc(OC)c1CN1CCN(C(=O)[C@@H]2CN(C(=O)/C(C#N)=C/c3nccs3)C[C@H]2C2CCCCC2)CC1 [Compound B209] | 30 to 50 | > 70 | 25 to 200 | > 200 | – |
| COc1cc(-c2cn(C)c(=O)c(C)c2C)cc(OC)c1CN1CCN(C(=O)[C@@H]2CN(C(=O)/C(C#N)=C/C(C)(C)C)C[C@H]2C2CCCCC2)CC1 [Compound B210] | 50 to 70 | 50 to 70 | 25 to 200 | 25 to 200 | – |
| COc1cc(-c2cn(C)c(=O)c(C)c2C)cc(OC)c1CN1CCN(C(=O)[C@@H]2CN(C(=O)/C(C#N)=C/c3nccs3)C[C@H]2c2cccc(C)c2)CC1 [Compound B213] | 30 to 50 | 50 to 70 | > 200 | – | – |
| COc1cc(-c2cn(C)c(=O)c(C)c2C)cc(OC)c1CN1CCN(Cc2cccc3c2CCN(C(=O)/C(C#N)=C/C(C)(C)C)C3(C)C)C2(CC2)C1 [Compound C9, (E/Z)-2-(5-((7-(2,6-dimethoxy-4-(1,4,5-trimethyl-6-oxo-1,6-dihydropyridin-3-yl)benzyl)-4,7-diazaspiro[2.5]octan-4-yl)methyl)-1,1-dimethyl-1,2,3,4-tetrahydroisoquinoline-2-carbonyl)-4,4-dimethylpent-2-enenitrile] | – | – | – | – | DC50 (BRD9 [1]; Assay protocol 1, BRD9 degradation, read-out: DC50): 25 to 1000 nM; Dmax (BRD9 [1]; [7]): 70 to 75%; DC50 (BRD9 [3]; Assay protocol 2, read-out: DC50): 25 to 1000 nM; Dmax (BRD9 [3]; [8]): 40 to 70% |
